In assay [1] the target is T1, OX2 (Homo sapiens, UniProt O43614).
T1 sequence (O43614 1-444): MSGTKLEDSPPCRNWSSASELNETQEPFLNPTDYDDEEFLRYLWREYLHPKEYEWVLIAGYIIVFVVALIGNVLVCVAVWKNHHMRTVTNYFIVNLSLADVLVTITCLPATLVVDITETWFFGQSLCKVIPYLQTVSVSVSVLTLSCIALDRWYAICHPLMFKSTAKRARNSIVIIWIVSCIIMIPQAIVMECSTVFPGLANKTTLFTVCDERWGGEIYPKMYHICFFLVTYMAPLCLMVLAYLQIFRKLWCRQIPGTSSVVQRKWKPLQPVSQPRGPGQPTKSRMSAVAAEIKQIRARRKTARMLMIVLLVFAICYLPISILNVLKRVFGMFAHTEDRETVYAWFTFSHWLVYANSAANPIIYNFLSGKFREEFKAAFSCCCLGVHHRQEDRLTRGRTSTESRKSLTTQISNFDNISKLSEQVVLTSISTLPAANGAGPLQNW
The assay can be described thus: Measurement of orexin receptor-binding ability ([125I]-OX-A, cell membranes, OX2). More on the design: expressed in transfected cells; host or cells: CHO cells (membrane preparation). To be noted: membranes of recombinant CHO cells expressing OX2, 0.2 nM [125I]-OX-A.

Assay [2] has as its target T2, OX1 (Homo sapiens, UniProt O43613).
T2 sequence (O43613 1-425): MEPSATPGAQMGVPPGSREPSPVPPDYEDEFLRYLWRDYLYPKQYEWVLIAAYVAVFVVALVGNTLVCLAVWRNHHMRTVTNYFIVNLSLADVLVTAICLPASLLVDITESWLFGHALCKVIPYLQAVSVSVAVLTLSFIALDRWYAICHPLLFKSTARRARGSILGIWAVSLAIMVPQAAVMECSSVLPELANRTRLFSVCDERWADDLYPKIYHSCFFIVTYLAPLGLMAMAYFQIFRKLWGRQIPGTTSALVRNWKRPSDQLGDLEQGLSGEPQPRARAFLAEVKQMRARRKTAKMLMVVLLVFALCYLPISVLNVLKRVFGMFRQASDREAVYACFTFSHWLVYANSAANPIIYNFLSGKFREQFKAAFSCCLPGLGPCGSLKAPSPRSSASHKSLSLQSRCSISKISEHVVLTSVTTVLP
Briefly: Measurement of orexin receptor-binding ability ([125I]-OX-A, cell membranes, OX1). Further details: expressed in transfected cells; host or cells: CHO cells (membrane preparation). As for the experimental part:
1. Measurement of Orexin Receptor-Binding Ability
The assay was carried out using a 96-well Wheat Germ Agglutinin Flash Plate (PerkinElmer). The volume in a single assay well was 100 ul, and the composition of the reaction solution was as follows:
25 mM HEPES (pH 7.5), 1 mM CaCl2, 4.5 mM MgCl2, 0.5% BSA (bovine serum albumin), 0.1% sodium azide, 0.05% Tween-20, and 0.2% DMSO.
Cell membranes were prepared from recombinant CHO cells that expressed OX2 or OX1. The cell membranes were used in an amount of 5 μg protein/assay. […] Finally, the radioactivity of each well was measured using a scintillation counter (TopCount, PerkinElmer).

Where [3] appears, read: membranes of recombinant CHO cells expressing OX1, 0.2 nM [125I]-OX-A, read-out: OX1 (IC50).

SMILES strings stand for the structures. Where two headings read alike, the source gives them in different places.

The term IC50 denotes the midpoint of a concentration-inhibition curve. In the case of `Cc1ncc(OCC2(c3ccc(F)cc3)CC2C(=O)Nc2cccnc2)c(C)n1` (stereo not shown) [Example 103], the values for the IC50 in assay [1] (read-out: OX2 (IC50)) and in assay [2] (setting [3]) were 96 nM and 2940 nM, respectively.

With `Cc1ncc(OCC2(c3ccc(Cl)cc3)CC2C(=O)Nc2cccnc2)c(C)n1` (stereo not shown) [Example 160], the IC50 in assay [1] (read-out: OX2 (IC50)) came out at 28 nM; in assay [2] (setting [3]), 389 nM.

In the case of `Cc1ncc(OC[C@@]2(c3ccsc3)C[C@H]2C(=O)Nc2ccc(F)cn2)c(C)n1` [Example 270], the values for the IC50 in assay [1] (OX2 (IC50) nM) and in assay [2] were 58 nM and 264 nM, respectively.

In the case of `COc1ccccc1C1(COc2cnc(C)nc2C)CC1C(=O)Nc1cccnc1` (stereo not shown) [Example 126], the IC50 in assay [1] (read-out: OX2 (IC50)) worked out at 107 nM; in assay [2] (setting [3]) it was 100 nM.

As to `Cc1ncc(OC[C@@]2(c3ccccc3)C[C@H]2C(=O)Nc2cc(F)cc(F)c2)c(C)n1` [Example 31], the IC50 in assay [1] (read-out: OX2 (IC50)) was 26 nM; in assay [2] (setting [3]), 222 nM.

In the case of `Cc1ncc(OC[C@@]2(c3cccc(I)c3)C[C@H]2C(=O)Nc2ccc(F)cn2)c(C)n1` [Example 283, (1R,2S)-2-{[(2,4-dimethylpyrimidin-5-yl)oxy]methyl}-N-(5-fluoropyridin-2-yl)-2-(3-iodophenyl)cyclopropanecarboxamide], the IC50 in assay [1] (OX2 (IC50) nM) was 9 nM; in assay [2], 172 nM.

As for `Cc1ncc(OC[C@@]2(c3cccc(F)c3)C[C@H]2C(=O)Nc2cc(Cl)ccn2)c(C)n1` [Example 85, (1R,2S)-N-(4-chloropyridin-2-yl)-2-{[(2,4-dimethylpyrimidin-5-yl)oxy]methyl}-2-(3-fluorophenyl)cyclopropanecarboxamide], the results for the IC50 in assay [1] (OX2 (IC50) nM) and in assay [2] were 5 nM and 4 nM, respectively.

With `Cc1ccc(NC(=O)[C@@H]2C[C@@]2(COc2cnc(C)nc2C)c2ccccc2)nc1` [Example 69], the IC50 in assay [1] (OX2 (IC50) nM) amounted to 34 nM; in assay [2], 126 nM.

On to `COc1ccc(C2(COc3cnc(C)nc3C)CC2C(=O)Nc2ccc(F)cn2)cc1` (stereo not shown) [Example 181], for which the figures for the IC50 in assay [1] (OX2 (IC50) nM) and in assay [2] were 100 nM and 118 nM, respectively.

For `CCc1nc(C)ncc1OC[C@@]1(c2ccccc2)C[C@H]1C(=O)Nc1cncc(OC)c1` [Example 317], the IC50 in assay [1] (read-out: OX2 (IC50)) amounted to 20 nM; in assay [2] (setting [3]), 451 nM.

`COCc1nc(C)ncc1OC[C@@]1(c2cccc(Cl)c2)C[C@H]1C(=O)Nc1ccccn1` [Example 225, (1R,2S)-2-(3-chlorophenyl)-2-{[(4-methoxymethyl-2-methylpyrimidin-5-yl)oxy]methyl}-N-(pyridin-2-yl)cyclopropanecarboxamide]: the IC50 in assay [1] (read-out: OX2 (IC50)) came to 3 nM; in assay [2] (setting [3]) it was 6 nM.

For `COCc1nc(C)ncc1OC[C@@]1(c2cccc(F)c2)C[C@H]1C(=O)Nc1ccccn1` [Example 193, (1R,2S)-2-(3-fluorophenyl)-2-{[(4-methoxymethyl-2-methylpyrimidin-5-yl)oxy]methyl}-N-(pyridin-2-yl)cyclopropanecarboxamide], the results for the IC50 in assay [1] (OX2 (IC50) nM) and in assay [2] were 8 nM and 36 nM, respectively.

Regarding `COCc1nc(C)ncc1OC[C@@]1(c2ccc(F)cc2)C[C@H]1C(=O)Nc1ccc(F)cc1` [Example 203, (1R,2S)-N,2-bis(4-fluorophenyl)-2-{[(4-methoxymethyl-2-methylpyrimidin-5-yl)oxy]methyl}cyclopropanecarboxamide], the IC50 in assay [1] (read-out: OX2 (IC50)) is 8 nM; in assay [2] (setting [3]) it was 215 nM.

Turning to `Cc1ncc(OC[C@@]2(c3cccc(C(F)(F)F)c3)C[C@H]2C(=O)Nc2ccc(F)cn2)c(C)n1` [Example 266, (1R,2S)-2-{[(2,4-dimethylpyrimidin-5-yl)oxy]methyl}-N-(5-fluoropyridin-2-yl)-2-(3-trifluoromethylphenyl)cyclopropanecarboxamide], the IC50 stood at 2.7 nM in assay [1] (OX2 (IC50) nM) and 30 nM in assay [2].

In the case of `COCc1cc(NC(=O)[C@@H]2C[C@@]2(COc2cnc(C)nc2C)c2ccc(F)cc2)ncc1F` [Example 109, (1R,2S)-2-{[(2,4-dimethylpyrimidin-5-yl)oxy]methyl}-N-(5-fluoro-4-methoxymethylpyridin-2-yl)-2-(4-fluorophenyl)cyclopropanecarboxamide], the IC50 in assay [1] (OX2 (IC50) nM) was determined as 5.8 nM; in assay [2], 12 nM.

Consider `CCc1nc(C)ncc1OC[C@@]1(c2cccc(F)c2)C[C@H]1C(=O)Nc1ccc(Cl)cn1` [Example 243, (1R,2S)-N-(5-chloropyridin-2-yl)-2-{[(4-ethyl-2-methylpyrimidin-5-yl)oxy]methyl}-2-(3-fluorophenyl)cyclopropanecarboxamide], for which the IC50 came out at 3.3 nM in assay [1] (OX2 (IC50) nM) and 2 nM in assay [2].

On to `Cc1ncc(OCC2(c3ccccc3C)CC2C(=O)Nc2ccc(F)cn2)c(C)n1` (stereo not shown) [Example 179], for which the IC50 in assay [1] (OX2 (IC50) nM) was 29 nM; in assay [2] it was 167 nM.

`Cc1ncc(OC[C@@]2(c3cccc(F)c3)C[C@H]2C(=O)Nc2ccc(F)c(O)n2)c(C)n1` [Example 325, (1R,2S)-2-{[(2,4-dimethylpyrimidin-5-yl)oxy]methyl}-N-(5-fluoro-6-hydroxypyridin-2-yl)-2-(3-fluorophenyl)cyclopropanecarboxamide]: the values for the IC50 in assay [1] (OX2 (IC50) nM) and in assay [2] were 20 nM and 158 nM, respectively.

`COCc1ccnc(NC(=O)[C@@H]2C[C@@]2(COc2cnc(C)nc2C)c2ccccc2)c1` [Example 14]: the IC50 in assay [1] (read-out: OX2 (IC50)) came to 16 nM; in assay [2] (setting [3]), 302 nM.

Turning to `COCc1nc(C)ncc1OC[C@@]1(c2cc(F)cc(F)c2)C[C@H]1C(=O)Nc1ccc(F)c(F)c1` [Example 221, (1R,2S)-N-(3,4-difluorophenyl)-2-(3,5-difluorophenyl)-2-{[(4-methoxymethyl-2-methylpyrimidin-5-yl)oxy]methyl}cyclopropanecarboxamide], the IC50 was 3 nM in assay [1] (read-out: OX2 (IC50)) and less than 2 nM in assay [2] (setting [3]).

`Cc1ncc(OC[C@@]2(c3ccccc3)C[C@H]2C(=O)Nc2cccc(CCO)c2)c(C)n1` [Example 40]: the IC50 in assay [1] (read-out: OX2 (IC50)) is 9 nM; in assay [2] (setting [3]), 172 nM.

On to `Cc1ncc(OCC2(c3cccc(F)c3)CC2C(=O)Nc2cccnc2)c(C)n1` (stereo not shown) [Example 99], for which the IC50 in assay [1] (OX2 (IC50) nM) was found to be 58 nM; in assay [2], 644 nM.

Turning to `Cc1ncc(OC[C@@]2(c3ccccc3)C[C@H]2C(=O)Nc2ccnc(Cl)c2)c(C)n1` [Example 33], the IC50 turned out to be 15 nM in assay [1] (read-out: OX2 (IC50)) and 209 nM in assay [2] (setting [3]).

With `Cc1ncc(OC[C@@]2(c3ccccc3)C[C@H]2C(=O)Nc2ccc(F)cc2)c(C)n1` [Example 77, (1R,2S)-2-{[(2,4-dimethylpyrimidin-5-yl)oxy]methyl}-N-(4-fluorophenyl)-2-phenylcyclopropanecarboxamide], the IC50 amounted to 24 nM in assay [1] (read-out: OX2 (IC50)) and 41 nM in assay [2] (setting [3]).

With `Cc1ncc(OC[C@@]2(c3ccccc3)C[C@H]2C(=O)Nc2ccc(F)c(F)c2)c(C)n1` [Example 30], the IC50 in assay [1] (read-out: OX2 (IC50)) was determined as 12 nM; in assay [2] (setting [3]), 78 nM.

For `Cc1cccc(NC(=O)[C@@H]2C[C@@]2(COc2cnc(C)nc2C)c2ccccc2)n1` [Example 70], the values for the IC50 in assay [1] (OX2 (IC50) nM) and in assay [2] were 41 nM and 704 nM, respectively.

Turning to `COc1cccc([C@]2(COc3cnc(C)nc3C)C[C@H]2C(=O)Nc2cc(C)c(F)cn2)c1` [Example 189, (1R,2S)-2-{[(2,4-dimethylpyrimidin-5-yl)oxy]methyl}-N-(5-fluoro-4-methylpyridin-2-yl)-2-(3-methoxyphenyl)cyclopropanecarboxamide], the IC50 turned out to be 4.1 nM in assay [1] (read-out: OX2 (IC50)) and 7 nM in assay [2] (setting [3]).

In the case of `CCc1nc(C)ncc1OC[C@@]1(c2ccccc2)C[C@H]1C(=O)Nc1ccc(F)cc1` [Example 318], the figures for the IC50 in assay [1] (read-out: OX2 (IC50)) and in assay [2] (setting [3]) were 11 nM and 135 nM, respectively.

Take `COCc1nc(C)ncc1OC[C@@]1(c2ccc(F)c(F)c2)C[C@H]1C(=O)Nc1ccc(F)cc1` [Example 213]: the IC50 was determined as 11 nM in assay [1] (read-out: OX2 (IC50)) and 14 nM in assay [2] (setting [3]).

For `COc1ccnc(NC(=O)[C@@H]2C[C@@]2(COc2cnc(C)nc2C)c2ccccc2)c1` [Example 50], the IC50 in assay [1] (OX2 (IC50) nM) was 13 nM; in assay [2], 12 nM.

Regarding `Cc1cc(NC(=O)[C@@H]2C[C@@]2(COc2cnc(C)nc2C)c2ccccc2)ccn1` [Example 28], the IC50 in assay [1] (read-out: OX2 (IC50)) was determined as 101 nM; in assay [2] (setting [3]), 1700 nM.

Take `Cc1ncc(OCC2(c3ccccc3Cl)CC2C(=O)Nc2ccc(C#N)cn2)c(C)n1` (stereo not shown) [Example 153]: the values for the IC50 in assay [1] (OX2 (IC50) nM) and in assay [2] were 32 nM and 447 nM, respectively.

These data come from US8268848B2, “Cyclopropane compound” (Eisai R&D Management Co., Ltd., priority 2010, dated 2012).
